{"source": "paper PMC9208756", "about": "“A dual-target herbicidal inhibitor of lysine biosynthesis” (eLife, 2022)", "key": {"AtDHDPS1": {"target": "T1, AtDHDPS1 (Arabidopsis thaliana, UniProt Q9LZX6)", "T1 construct": "made in house", "T1 sequence (Q9LZX6 40-365)": "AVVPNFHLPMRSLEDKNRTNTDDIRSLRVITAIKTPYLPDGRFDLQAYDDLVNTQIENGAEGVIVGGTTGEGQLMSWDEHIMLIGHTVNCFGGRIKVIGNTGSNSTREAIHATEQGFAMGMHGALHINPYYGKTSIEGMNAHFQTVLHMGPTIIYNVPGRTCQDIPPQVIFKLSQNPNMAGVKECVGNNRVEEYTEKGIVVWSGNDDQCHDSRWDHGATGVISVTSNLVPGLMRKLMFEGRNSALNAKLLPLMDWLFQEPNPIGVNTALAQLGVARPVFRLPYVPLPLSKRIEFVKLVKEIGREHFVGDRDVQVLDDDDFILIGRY", "assay": "DHDPS enzyme inhibition assay, recombinant AtDHDPS1", "assay_type": "biochemical"}, "AtDHDPS2 [1]": {"target": "T2, AtDHDPS2 (Arabidopsis thaliana, UniProt Q9FVC8)", "T2 construct": "made in house", "T2 sequence (Q9FVC8 40-365)": "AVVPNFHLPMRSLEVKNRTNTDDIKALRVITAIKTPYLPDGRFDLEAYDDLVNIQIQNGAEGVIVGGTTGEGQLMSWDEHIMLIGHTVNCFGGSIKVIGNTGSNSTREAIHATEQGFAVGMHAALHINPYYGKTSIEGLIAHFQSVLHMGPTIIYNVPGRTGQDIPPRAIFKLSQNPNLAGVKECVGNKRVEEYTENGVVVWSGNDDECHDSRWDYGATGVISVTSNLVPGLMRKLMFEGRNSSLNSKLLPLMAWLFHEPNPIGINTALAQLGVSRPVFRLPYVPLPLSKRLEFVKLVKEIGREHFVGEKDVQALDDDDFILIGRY", "assay": "DHDPS enzyme inhibition assay, recombinant AtDHDPS2", "assay_type": "biochemical"}, "AtDHDPR1": {"target": "T3, AtDHDPR1 (Arabidopsis thaliana, UniProt O80574)", "T3 construct": "made in house", "T3 sequence (O80574 52-347)": "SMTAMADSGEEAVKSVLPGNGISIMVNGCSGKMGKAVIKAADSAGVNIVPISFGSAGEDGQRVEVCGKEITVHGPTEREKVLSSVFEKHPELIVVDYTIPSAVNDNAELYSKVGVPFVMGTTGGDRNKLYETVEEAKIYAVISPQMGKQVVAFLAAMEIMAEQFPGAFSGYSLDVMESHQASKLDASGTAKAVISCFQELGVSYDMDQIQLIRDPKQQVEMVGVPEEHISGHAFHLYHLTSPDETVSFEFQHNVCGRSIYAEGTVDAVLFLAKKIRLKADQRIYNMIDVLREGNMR", "assay": "DHDPR enzyme inhibition assay, recombinant AtDHDPR1", "assay_type": "biochemical", "experimental": "(§1) Briefly, reaction mixtures were incubated at 30℃ for 12 min before a second 60-s incubation following the addition of excess E. coli DHDPS (51 µg ml^−1) for generation of the DHDP substrate. The relevant DHDPR isoform (2.6 µg ml^−1) was added to initiate the reaction, and substrate turnover measured spectrophotometrically at 340 nm via the associated oxidation of the cofactor NADPH. Experiments were performed in technical triplicates."}, "AtDHDPR2": {"target": "T4, AtDHDPR2 (Arabidopsis thaliana, UniProt Q8LB01)", "T4 construct": "made in house", "T4 sequence (Q8LB01 54-349)": "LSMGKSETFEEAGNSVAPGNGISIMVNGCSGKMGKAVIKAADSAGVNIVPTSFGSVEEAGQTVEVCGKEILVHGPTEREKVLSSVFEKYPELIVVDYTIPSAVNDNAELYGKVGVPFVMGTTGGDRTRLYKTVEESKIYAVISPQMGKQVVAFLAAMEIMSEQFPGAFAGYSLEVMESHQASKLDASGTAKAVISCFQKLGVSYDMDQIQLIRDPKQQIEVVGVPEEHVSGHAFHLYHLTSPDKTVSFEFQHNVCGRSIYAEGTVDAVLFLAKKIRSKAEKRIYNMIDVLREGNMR", "assay": "DHDPR enzyme inhibition assay, recombinant AtDHDPR2", "assay_type": "biochemical", "experimental": "as §1"}, "AtDHDPR": {"test_system": "AtDHDPR", "assay": "DHDPR enzyme inhibition, comparisons over both isoforms", "assay_type": "biochemical, Arabidopsis thaliana", "experimental": "as §1"}, "Lolium rigidum": {"test_system": "Lolium rigidum", "assay": "Herbicidal activity, pre-emergence treatment of soil-grown plants", "assay_type": "in vivo", "experimental": ". Pre-wet seed-raising soil (pH 5.5) (Biogro, Dandenong South, VIC, Australia) supplemented with 0.22% (wt/wt) Nutricote N12 Micro 140 day-controlled release fertiliser (Yates, Sydney, NSW, Australia) was used. Ten seeds were sown at a depth of 0.5 cm into pots of pre-wet soil, following stratification at 4℃ for 21 days in the dark. Compounds dissolved in DMSO were diluted to working concentrations in H2O containing 0.01% (vol/vol) Agral (Syngenta, North Ryde, NSW, Australia) to a final DMSO concentration of 2% (vol/vol). Treatments were given by pipetting 2.0 ml of MBDTA-2, vehicle control or positive control (chlorosulfuron PESTANAL [Sigma-Aldrich, North Ryde, NSW, Australia]) directly onto seeds upon sowing and on each of the subsequent 2 days. Plants were grown in a chamber at 22℃ under a 16 hr light (100 µmol m^−2 s^−1)/8 hr dark schedule for 14 days before photos were taken. Roots and shoots were separated prior to drying at 70℃ for 72 hr. Experiments were performed in biological triplicates."}, "AtDHDPS2 [2]": {"target": "T2, AtDHDPS2", "design": "method as in Soares da Costa et al., 2021", "conditions": "previously reported; ref Soares da Costa et al., 2021; cited from earlier work"}, "[3]": {"conditions": "[HBDTA] 0.000125 M, replicates 1-3"}, "[4]": {"conditions": "[HBDTA-2] 0.000125 M, replicates 1-3"}, "[5]": {"conditions": "[HBDTA-2] 0.0005 M, replicates 1-3"}, "[6]": {"conditions": "[MBDTA-2] 0.000125 M, limiting substrate and cofactor, replicates 1-3"}, "[7]": {"conditions": "1200 mg l^−1, three pre-emergence treatments, 14 days, vs vehicle"}, "[8]": {"conditions": "Treated, 1200 mg l^−1, biological triplicates"}}, "note": "“And” between values parts separate entries of the source, which are not always exact repeats. Identical values can stand only once. Like-named read-outs stand apart in the source and are kept apart here."}
{"smiles": "O=C(O)CN1C(=O)S/C(=C\\c2ccc(O)cc2)C1=O", "note": "[HBDTA, (Z)-2-(5-(4-hydroxybenzylidene)-2,4-dioxothiazolidin-3-yl)acetic acid]", "values": [{"measurement": "remaining activity at 125 µM", "setting": "AtDHDPS1; [3]", "result": 31.1, "unit": "%"}, {"measurement": "IC50", "setting": "AtDHDPS1; recombinant enzyme", "result": "100 ± 0.95", "unit": "µM"}, {"measurement": "remaining activity at 125 µM", "setting": "AtDHDPS2 [1]; [3]", "result": 37, "unit": "%"}, {"measurement": "IC50", "setting": "AtDHDPS2 [1]; recombinant enzyme", "result": "105 ± 1.04", "unit": "µM"}, {"measurement": "remaining activity at 125 µM", "setting": "AtDHDPR1; [4]", "result": 83.9, "unit": "%"}, {"measurement": "remaining activity at 250 µM", "setting": "AtDHDPR1; [HBDTA-2] 0.00025 M, replicates 1-3", "result": 8.06, "unit": "%"}, {"measurement": "remaining activity at 500 µM", "setting": "AtDHDPR1; [5]", "result": 0, "unit": "%"}, {"measurement": "IC50", "setting": "AtDHDPR1; substrate and cofactor at limiting concentrations, read-out: IC50 against AtDHDPR1", "result": "169 ± 0.92", "unit": "µM"}, {"measurement": "remaining activity at 125 µM", "setting": "AtDHDPR2; [4]", "result": 65.7, "unit": "%"}, {"measurement": "remaining activity at 500 µM", "setting": "AtDHDPR2; [5]", "result": 0, "unit": "%"}, {"measurement": "IC50", "setting": "AtDHDPR2; substrate and cofactor at limiting concentrations, read-out: IC50 against AtDHDPR2", "result": "155 ± 0.9", "unit": "µM"}, {"measurement": "fold less potent at the DHDPR target site relative to MBDTA-2", "setting": "AtDHDPR; ratio of IC50 values", "result": "> 18", "unit": "fold"}]}
{"smiles": "COc1ccc(/C=C2\\SC(=O)N(CC(=O)O)C2=O)cc1", "note": "[MBDTA-2, (Z)-2-(5-(4-methoxybenzylidene)-2,4-dioxothiazolidin-3-yl)acetic acid]", "values": [{"measurement": "fold greater IC50 with excess vs limiting substrate and cofactor", "setting": "AtDHDPR1; AtDHDPR1", "result": 10, "unit": "fold"}, {"measurement": "IC50", "setting": "AtDHDPR1; IC50 against AtDHDPR1, excess substrate and nucleotide cofactor, 10-fold above KM", "result": "72.7 ± 1.07", "unit": "µM"}, {"measurement": "IC50", "setting": "AtDHDPR1; IC50 against AtDHDPR1, substrate and cofactor at limiting concentrations", "result": "6.92 ± 0.92", "unit": "µM"}, {"measurement": "remaining activity at 125 µM", "setting": "AtDHDPR1; [6]", "result": 9.11, "unit": "%"}, {"measurement": "remaining activity at 125 µM", "setting": "AtDHDPR1; [MBDTA-2] 0.000125 M, saturating substrate and cofactor, replicates 1-3", "result": 7.04, "unit": "%"}, {"measurement": "fold greater IC50 with excess vs limiting substrate and cofactor", "setting": "AtDHDPR2; AtDHDPR2", "result": 8, "unit": "fold"}, {"measurement": "IC50", "setting": "AtDHDPR2; IC50 against AtDHDPR2, excess substrate and nucleotide cofactor, 10-fold above KM", "result": "69.5 ± 1.06", "unit": "µM"}, {"measurement": "IC50", "setting": "AtDHDPR2; IC50 against AtDHDPR2, substrate and cofactor at limiting concentrations", "result": "8.58 ± 1.19", "unit": "µM"}, {"measurement": "remaining activity at 125 µM", "setting": "AtDHDPR2; [6]", "result": 0, "unit": "%"}, {"measurement": "remaining activity at 250 µM", "setting": "AtDHDPR2; [MBDTA-2] 0.00025 M, limiting substrate and cofactor, replicates 1-3", "result": 0, "unit": "%"}, {"measurement": "remaining activity at 500 µM", "setting": "AtDHDPR2; [MBDTA-2] 0.0005 M, saturating substrate and cofactor, replicates 1-3", "result": 0.507, "unit": "%"}, {"measurement": "effect on germination and growth", "setting": "Lolium rigidum; 1200 mg l^−1", "result": "inhibition of plant germination and growth"}, {"measurement": "fold reduction in root dry weight", "setting": "Lolium rigidum; [7]", "result": "~ 2 fold"}, {"measurement": "fold reduction in shoot dry weight", "setting": "Lolium rigidum; [7]", "result": "~ 5 fold"}, {"measurement": "fold reduction in shoot fresh weight", "setting": "Lolium rigidum; [7]", "result": "~ 4 fold"}, {"measurement": "Dry Weight, Roots", "setting": "Lolium rigidum; [8]", "result": "7 mg and 10 mg"}, {"measurement": "Dry Weight, Shoots", "setting": "Lolium rigidum; [8]", "result": "10 mg and 8 mg"}, {"measurement": "Fresh Weight, Roots", "setting": "Lolium rigidum; [8]", "result": "44 mg and 33 mg and 58 mg"}, {"measurement": "Fresh Weight, Shoots", "setting": "Lolium rigidum; [8]", "result": "71 mg and 107 mg and 109 mg"}, {"measurement": "mechanism of inhibition", "setting": "AtDHDPR; from IC50 shift with excess substrate and cofactor", "result": "competitive inhibitor"}, {"measurement": "IC50", "setting": "AtDHDPS2 [2]", "result": "64 ± 1", "unit": "µM"}]}
